Like-named read-outs stand apart in the source and are kept apart here. Peptide text beside a SMILES is read from it.

The record followed here is patent US10081662B2, “Modified relaxin B chain peptides” (The Florey Institute of Neuroscience and Mental Health, priority 2014, dated 2018).

A short description of series [1]: Solubility of relaxin B chain peptides in aqueous solution.
The target of series [2] is T1, RXFP1 (Homo sapiens, UniProt Q9HBX9).
T1 construct: expressed in transfected cells; host or cells: HEK-293T
T1 sequence (Q9HBX9 1-757): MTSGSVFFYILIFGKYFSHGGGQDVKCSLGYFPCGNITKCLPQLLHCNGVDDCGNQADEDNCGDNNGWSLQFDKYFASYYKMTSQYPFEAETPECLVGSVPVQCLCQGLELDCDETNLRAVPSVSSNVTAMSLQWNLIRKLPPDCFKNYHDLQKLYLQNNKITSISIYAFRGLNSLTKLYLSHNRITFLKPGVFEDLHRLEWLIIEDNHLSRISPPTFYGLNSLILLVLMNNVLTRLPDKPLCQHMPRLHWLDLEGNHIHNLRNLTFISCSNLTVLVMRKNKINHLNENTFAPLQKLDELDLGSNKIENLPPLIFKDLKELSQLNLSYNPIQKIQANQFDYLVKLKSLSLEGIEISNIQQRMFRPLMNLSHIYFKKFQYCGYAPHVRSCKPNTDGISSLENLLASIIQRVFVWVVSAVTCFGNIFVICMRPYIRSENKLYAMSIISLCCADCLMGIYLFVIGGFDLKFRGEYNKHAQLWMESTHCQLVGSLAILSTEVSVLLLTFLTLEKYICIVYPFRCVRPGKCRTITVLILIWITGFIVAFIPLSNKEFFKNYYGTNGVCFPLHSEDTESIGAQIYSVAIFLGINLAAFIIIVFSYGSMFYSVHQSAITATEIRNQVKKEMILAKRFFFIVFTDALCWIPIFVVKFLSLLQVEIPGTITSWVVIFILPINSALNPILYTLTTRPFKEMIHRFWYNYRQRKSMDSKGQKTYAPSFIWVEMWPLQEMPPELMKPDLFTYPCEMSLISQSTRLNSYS
The series can be described thus: Eu-labelled H2 relaxin competition binding, whole HEK-293T cells stably transfected with RXFP1. As to the method:
Human embryonic kidney (HEK-293T) cells stably transfected with RXFP1 were cultured in RPMI 1640 medium supplemented with 10% fetal calf serum, 100 μg/ml penicillin, 100 μg/ml streptomycin and 2 mM L-glutamine and plated into 96-well pre-coated with poly-L-lysine for whole cell binding assays. Competition binding experiments were conducted with Eu^3+-labelled H2 relaxin (as per Shabanpoor et al., 2012, Biochem Biophys Res Commun. 420, 253-256) in the absence or presence of increasing concentrations of unlabelled relaxin-2 B chain derivatives. Nonspecific binding was determined with an excess of unlabelled peptides (500 nM H2 relaxin). Fluorescent measurements were recorded at an excitation wavelength of 340 nm and emission of 614 nm on a Victor plate reader (Perkin-Elmer Inc.). […] Statistical differences in pIC50 values were analyzed using one-way analysis of variance coupled to Newman Keul's multiple comparison test for multiple group comparisons in GraphPad Prism 6.

Series [3] has as its target T1, RXFP1. Briefly: cAMP reporter gene assay (pCRE β-galactosidase) in HEK-293T cells transfected with RXFP1. The series is classed as cell-based. Here is the method:
The ability of the relaxin-2 B chain peptide derivatives generated in Example 1 to stimulate cAMP response was also evaluated, using a cAMP reporter gene assay as described previously (Scott et al., 2006, J Biol Chem. 281, 34942-34954). HEK-293T cells co-transfected with either RXFP1 or RXFP2, or 7BP cells, and a pCRE β-galactosidase reporter plasmid were plated in 96-well plates. After 24 hours, the co-transfected cells were incubated with increasing concentrations of peptides in parallel to 10 nM of H2 relaxin or INSL3 for RXFP1- or RXFP2-transfected cells respectively. The amount of cAMP-driven β-galactosidase expression in each well was assessed with a colorimetric assay measuring absorbance at 570 nm on a microplate spectrophotometer. Ligand-induced cAMP stimulation was expressed as a percentage of maximal response of H2 relaxin or INSL3 for RXFP1 and RXFP2 cells respectively. Each data point was measured in triplicate and each experiment conducted independently at least three separate times. Statistical differences in pEC50 values were analyzed using one-way ANOVA coupled to Newman Keul's multiple comparison test for multiple group comparisons in GraphPad Prism 6.
For orientation: A reporter such as luciferase makes a cellular process visible.

The target of series [4] is T2, fusion protein comprising the extracellular domain of RXFP1 and the transmembrane domain of CD8 (7BP cells) (Homo sapiens, UniProt Q9HBX9).
T2 construct: the extracellular domain of RXFP1 and the transmembrane domain of CD8; expressed in transfected cells
T2 sequence (Q9HBX9 1-409 limits assumed): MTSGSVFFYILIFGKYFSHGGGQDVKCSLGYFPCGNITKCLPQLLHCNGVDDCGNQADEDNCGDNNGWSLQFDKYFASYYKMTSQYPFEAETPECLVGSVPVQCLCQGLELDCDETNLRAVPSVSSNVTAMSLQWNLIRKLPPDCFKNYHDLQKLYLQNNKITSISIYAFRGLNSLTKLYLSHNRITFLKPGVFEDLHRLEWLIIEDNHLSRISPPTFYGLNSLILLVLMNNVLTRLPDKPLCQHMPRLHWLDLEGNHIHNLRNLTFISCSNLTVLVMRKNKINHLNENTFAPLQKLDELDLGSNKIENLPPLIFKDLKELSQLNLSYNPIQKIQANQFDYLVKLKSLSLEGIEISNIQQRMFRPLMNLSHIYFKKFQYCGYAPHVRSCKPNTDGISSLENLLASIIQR
The series can be described thus: Eu-labelled H2 relaxin competition binding to 7BP cells.

Setting [5] is: HEK-293T cells stably transfected with RXFP1, competition with Eu-labelled H2 relaxin, mean ± S.E, n ≥ 3, read-out: RXFP1 Eu-H2 pKi (converted).
The mark [6] stands for this setting: HEK-293T cells co-transfected with RXFP1 and pCRE β-galactosidase reporter, n ≥ 3, read-out: RXFP1 cAMP pEC50 (converted).
[7] abbreviates: 7BP cells, competition with Eu-labelled H2 relaxin, n ≥ 3, read-out: 7BP Eu-H2 pKi (converted).

On to `CC[C@H](C)[C@H](NC(=O)[C@H](C)NC(=O)[C@@H](NC(=O)[C@H](CCC(N)=O)NC(=O)[C@H](C)NC(=O)[C@H](CCCNC(=N)N)NC(=O)[C@@H](NC(=O)[C@H](CC(C)C)NC(=O)[C@H](CCC(=O)O)NC(=O)[C@H](CCCNC(=N)N)NC(=O)CNC(=O)[C@H](CS)NC(=O)[C@H](CC(C)C)NC(=O)[C@H](CCCCN)NC(=O)[C@@H](NC(=O)[C@@H](NC(=O)[C@H](CCC(=O)O)NC(=O)[C@H](CCC(=O)O)NC(=O)[C@H](CCSC)NC(=O)[C@H](Cc1c[nH]c2ccccc12)NC(=O)[C@H](CO)NC(=O)[C@@H](N)CC(=O)O)C(C)C)[C@@H](C)CC)C(C)C)[C@@H](C)CC)C(=O)N[C@@H](CS)C(=O)NCC(=O)N[C@@H](CCSC)C(=O)N[C@@H](CO)C(=O)N[C@H](C(=O)N[C@@H](Cc1c[nH]c2ccccc12)C(=O)N[C@@H](CO)C(N)=O)[C@@H](C)O` [H2 B chain], for which the “Solubility at concentration 4 mg/ml” value in series [1] (4 mg/ml, FIG. 1) was “insoluble”. Moreover, the “Aqueous solubility (in words)” value in series [1] (aqueous solution) is listed as “insoluble in aqueous solution”.

For `CC[C@H](C)[C@H](NC(=O)[C@H](C)NC(=O)[C@H](C)NC(=O)[C@H](CCC(N)=O)NC(=O)[C@H](C)NC(=O)[C@H](C)NC(=O)[C@@H](NC(=O)[C@H](CC(C)C)NC(=O)[C@H](CCC(=O)O)NC(=O)[C@H](C)NC(=O)CNC(=O)[C@H](CO)NC(=O)[C@H](CC(C)C)NC(=O)[C@H](CCCCN)NC(=O)[C@@H](NC(=O)[C@@H](NC(C)=O)C(C)C)[C@@H](C)CC)C(C)C)C(=O)N[C@@H](CO)C(=O)NCC(=O)N[C@@H](CCSC)C(=O)N[C@@H](CO)C(=O)N[C@H](C(=O)N[C@@H](Cc1c[nH]c2ccccc12)C(=O)N[C@@H](CO)C(=O)N[C@@H](CCCCN)C(=O)N[C@@H](CCCNC(=N)N)C(=O)N[C@@H](CO)C(=O)N[C@@H](CC(C)C)C(N)=O)[C@@H](C)O` [R13/17A. I20A (AcB7-33 C11.23S)] (Ac-VIKLSGAELVAAQAAISGMSTWSKRSL-NH2), the Ki is > 10000 nM on RXFP1 [2] and 2880 nM in series [4]. Also, the EC50 at RXFP1 [3] is > 10000 nM.

For the compound `CC[C@H](C)[C@H](NC(=O)[C@H](C)NC(=O)[C@@H](NC(=O)[C@H](CCC(N)=O)NC(=O)[C@H](C)NC(=O)[C@H](CCCNC(=N)N)NC(=O)[C@@H](NC(=O)[C@H](CC(C)C)NC(=O)[C@H](CCC(=O)O)NC(=O)[C@H](C)NC(=O)CNC(=O)[C@H](CO)NC(=O)[C@H](CC(C)C)NC(=O)[C@H](CCCCN)NC(=O)[C@@H](NC(=O)[C@@H](NC(C)=O)C(C)C)[C@@H](C)CC)C(C)C)[C@@H](C)CC)C(=O)N[C@@H](CO)C(=O)NCC(=O)N[C@@H](CCSC)C(=O)N[C@@H](CO)C(=O)N[C@H](C(=O)N[C@@H](Cc1c[nH]c2ccccc12)C(=O)N[C@@H](CO)C(=O)N[C@@H](CCCCN)C(=O)N[C@@H](CCCNC(=N)N)C(=O)N[C@@H](CO)C(=O)N[C@@H](CC(C)C)C(N)=O)[C@@H](C)O` [R13A (AcB7-33 C11.23S)] (Ac-VIKLSGAELVRAQIAISGMSTWSKRSL-NH2), the Ki is > 10000 nM at RXFP1 [2] (setting [5]) and 1740 nM in series [4] (setting [7]). Moreover, at RXFP1 [3] (setting [6]), the EC50 was > 10000 nM.

`CC[C@H](C)[C@H](NC(=O)[C@H](C)NC(=O)[C@@H](NC(=O)[C@H](CCC(N)=O)NC(=O)[C@H](C)NC(=O)[C@H](CCCNC(=N)N)NC(=O)[C@@H](NC(=O)[C@H](CC(C)C)NC(=O)[C@H](CCC(=O)O)NC(=O)[C@H](CCCNC(=N)N)NC(=O)CNC(=O)[C@H](CO)NC(=O)[C@H](CC(C)C)NC(=O)[C@H](CCCCN)NC(=O)[C@@H](NC(=O)[C@@H](NC(C)=O)C(C)C)[C@@H](C)CC)C(C)C)[C@@H](C)CC)C(=O)N[C@@H](CO)C(=O)NCC(=O)N[C@@H](CCSC)C(=O)N[C@@H](CO)C(=O)N[C@H](C(=O)N[C@@H](Cc1c[nH]c2ccccc12)C(=O)N[C@@H](CO)C(=O)N[C@@H](CCCCN)C(=O)N[C@@H](CCCNC(=N)N)C(=O)N[C@@H](CO)C(=O)N[C@@H](CC(C)C)C(N)=O)[C@@H](C)O` [AcB7-33 C11.23S] (Ac-VIKLSGRELVRAQIAISGMSTWSKRSL-NH2): the results for the Ki (on RXFP1 [2] (setting [5]); in series [4] (setting [7])) were 1000 nM and 28.8 nM, respectively. For the same compound, at RXFP1 [3] (setting [6]), the EC50 is 3980 nM.

For `CC[C@H](C)[C@H](NC(=O)[C@H](C)NC(=O)[C@@H](NC(=O)[C@H](CCC(N)=O)NC(=O)[C@H](C)NC(=O)[C@H](C)NC(=O)[C@@H](NC(=O)[C@H](CC(C)C)NC(=O)[C@H](CCC(=O)O)NC(=O)[C@H](CCCNC(=N)N)NC(=O)CNC(=O)[C@H](CO)NC(=O)[C@H](CC(C)C)NC(=O)[C@H](CCCCN)NC(=O)[C@@H](NC(=O)[C@@H](NC(C)=O)C(C)C)[C@@H](C)CC)C(C)C)[C@@H](C)CC)C(=O)N[C@@H](CO)C(=O)NCC(=O)N[C@@H](CCSC)C(=O)N[C@@H](CO)C(=O)N[C@H](C(=O)N[C@@H](Cc1c[nH]c2ccccc12)C(=O)N[C@@H](CO)C(=O)N[C@@H](CCCCN)C(=O)N[C@@H](CCCNC(=N)N)C(=O)N[C@@H](CO)C(=O)N[C@@H](CC(C)C)C(N)=O)[C@@H](C)O` [R17A (AcB7-33 C11.23S)] (Ac-VIKLSGRELVAAQIAISGMSTWSKRSL-NH2), the Ki on RXFP1 [2] (setting [5]) is > 10000 nM; in series [4] (setting [7]), 977 nM. At RXFP1 [3] (setting [6]), the EC50 is > 10000 nM.

Consider `CC[C@H](C)[C@H](NC(=O)[C@H](C)NC(=O)[C@@H](NC(=O)[C@H](CCC(N)=O)NC(=O)[C@H](C)NC(=O)[C@H](CCCNC(=N)N)NC(=O)[C@@H](NC(=O)[C@H](CC(C)C)NC(=O)[C@H](CCC(=O)O)NC(=O)[C@H](CCCNC(=N)N)NC(=O)CNC(=O)[C@H](CO)NC(=O)[C@H](CC(C)C)NC(=O)[C@H](CCCCN)NC(=O)[C@@H](NC(=O)[C@@H](NC(C)=O)C(C)C)[C@@H](C)CC)C(C)C)[C@@H](C)CC)C(=O)N[C@@H](CO)C(=O)NCC(=O)N[C@@H](CCSC)C(=O)N[C@@H](CO)C(=O)N[C@H](C(=O)N[C@@H](Cc1c[nH]c2ccccc12)C(=O)N[C@@H](CO)C(=O)N[C@@H](CCCCN)C(=O)N[C@@H](CCCCN)C(=O)N[C@@H](CCCCN)C(=O)N[C@@H](CCCCN)C(N)=O)[C@@H](C)O` [KKKK (AcB7-29 C11.23S)] (Ac-VIKLSGRELVRAQIAISGMSTWSKKKK-NH2), for which the Ki was 562 nM on RXFP1 [2] (setting [5]) and 1.23 nM in series [4] (setting [7]). Besides, the EC50 on RXFP1 [3] (setting [6]) was 1550 nM.
